Results reported in the METLIN SMRT retention time set (Domingo-Almenara et al. 2019).

Test: gradient 5% acetonitrile 3 min, to 50% in 2 min, to 85% in 15 min, held 3 min, 100 µL/min
Conditions: column: Zorbax Extend-C18 2.1 x 50 mm; eluents: water / acetonitrile, 0.1% formic acid
Outline: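 Retention times of pure standards were taken from adduct peaks that were selected by computer and manually inspected. Over 3 months, mixtures of ~100 molecules were run by HPLC–quadrupole time-of-flight mass spectrometry in positive and negative ionization mode. The Zorbax Extend-C18 column (2.1 × 50 mm, 1.8 μm) ran at 100 μL/min in water and acetonitrile, each containing 0.1% formic acid, with 40 μL dead volume and 900 μL dwell volume.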

Structure (SMILES) | RP-LC retention time
CC(C)Cc1noc(C2(F)CCN(S(=O)(=O)c3ccc(C(C)(C)C)cc3)CC2)n1 | 601 s
CCN1C(=O)COc2ccc(-c3noc(Cc4ccc(OC)cc4)n3)cc21 | 1000 s
Cc1onc(C(=O)N2CCCCCCNC(=O)[C@@H]3CCCC[C@@H]32)c1CN1CCCCC1 | 686 s
CCc1cc(=O)n(CC(=O)NCc2cccc(OC)c2)c(N)n1 | 584 s
CCCn1cnc2cc(CNC(=O)COc3ccc(Cl)cc3C)ccc21 | 692 s
CCOC(=O)c1cnc(N2CCN(c3ccc(OC)cc3)CC2)c2ccccc12 | 1080 s
CCc1nc(OCC(=O)NCc2ccccc2Cl)c2c(C)c(C)oc2n1 | 1020 s
O=C(Nc1nccs1)C1CCCN(c2ncnc3c2nc2n3CCCCC2)C1 (centres undefined) | 730 s
CNC(=O)c1cnn(-c2cccc(F)c2)c1-n1cccc1 | 777 s
Cc1ncn(CC(=O)Nc2ccccc2Cl)c(=O)c1C | 668 s
Cc1ccc2c(c1)c(C)c(C)n2CC(O)Cn1nc(C)cc1C (centres undefined) | 933 s
CC(C)c1noc(C2Cc3ccccc3N2C(=O)Nc2ccc3c(c2)OCCO3)n1 (centres undefined) | 936 s
O=C1Nc2ccccc2/C1=C\c1cnc[nH]1 | 617 s
Cc1ccc(-c2nc3cc(C)ccn3c2NC(=O)c2ccc(Cl)cc2)cc1 | 742 s
CCn1c(CCNC(=O)c2ccc(C)c(C)c2)nc2cccnc21 | 661 s
COc1cccc(CNS(=O)(=O)c2ccc(-c3c(C)noc3C)cc2)c1 | 904 s
O=C(Nc1nnc(C2CC(=O)N(c3ccccc3)C2)o1)c1ccccc1Br (centres undefined) | 709 s
COc1ccc(-c2noc(C3CC(=O)N(c4ccc(C)c(C)c4)C3)n2)cc1OC (centres undefined) | 928 s
Cc1nnc(C(C)C)n1C1CC2CCC(C1)N2CC[C@H](NC(=O)C1CCC(F)(F)CC1)c1ccccc1 (some centres undefined) | 674 s

Structure (SMILES) | RP-LC retention time
O=C(CCc1c(-c2ccc(F)cc2)nc2ccccn12)N1CCN(c2ccccc2F)CC1 | 694 s
CC(C)NC(=O)C1CCN(c2nc3ccc(-c4cccc(F)c4)nc3s2)CC1 | 942 s
O=C(O)CSc1nnc(Br)n1-c1ccc(C2CC2)c2ccccc12 | 949 s
Cc1ccccc1S(=O)(=O)N1CCC(n2cnnc2C2CC2)CC1 | 706 s
NS(=O)(=O)c1ccc(CNC(=O)C2CCN(C(=O)NCc3cccs3)CC2)cc1 | 612 s
Cc1ccc(C(=O)N2CCN(c3ccc(-c4noc(C5CC5)n4)cc3)CC2)s1 | 1010 s
CC(C)C(=O)NC(C)c1nc(-c2ccccc2Cl)no1 (centres undefined) | 834 s
Cc1c(C(=O)NCCOc2cccc3cccnc23)cnn1-c1ccccc1 | 593 s
Cc1ccc(CN2CCCn3nc(C(=O)NCCCN4CCOCC4)cc3C2=O)cc1 | 618 s
COc1ccc(CNC(=O)c2cc3c(=O)n(C)c4ccccc4n3n2)c(OC)c1 | 784 s
CCC(C)NC(=O)c1c(C)sc2ccn(CC)c(=O)c12 (centres undefined) | 709 s
Cc1ccc(-c2cc(=O)n3c4ccccc4n(CC(=O)NC4CCCC4)c3n2)cc1 | 942 s
c1ccc(-c2nc3nc4c(c(Nc5ccc6c(c5)OCCO6)n3n2)CCCC4)cc1 | 970 s
Cc1ccc(C2CC(=O)c3cnc(Nc4nc(C)c5ccccc5n4)nc3C2)cc1 (centres undefined) | 772 s
CCCn1c(=O)c(C)nc2cc(-c3noc(-c4ccc(Br)o4)n3)ccc21 | 1160 s
Cc1ccc(-c2nnc(C3CN(C(=O)C4(c5ccccc5)CC4)CC34CCOCC4)o2)cc1 (centres undefined) | 830 s
CCOC(=O)C1=C(C)NC(C)=C(C(=O)OCC)C1c1c(F)c(F)c(F)c(F)c1F | 1240 s
Cc1ccc(C)c(N2CCN(S(=O)(=O)c3ccc(-c4c(C)noc4C)cc3)CC2)c1 | 1250 s
COC(=O)c1cc(S(=O)(=O)N2CCCC2C(=O)NCc2ccc(Cl)cc2)cn1C (centres undefined) | 865 s

The next lines start with the values.

RP-LC retention time | Structure (SMILES)
802 s | CCn1cc(CCNC(=O)Nc2ccc(Br)cc2)c2cccnc21
559 s | O=C(NCc1ccccn1)C1CCN(c2cc(N3CCSCC3)ncn2)CC1
650 s | Cc1nc2c(c(=O)n1CC(=O)NCc1ccccc1Br)CCN(Cc1ccccc1)C2
914 s | Cc1ccc(NC(=O)C2CC(=O)N(c3cccc(NC(=O)C4CCC4)c3)C2)cc1Cl (centres undefined)
763 s | O=C(NCc1nnnn1C1CCCCC1)c1c(F)cccc1Cl
1090 s | COc1ccccc1N1CCN(c2cc(SCC(=O)Nc3ccc(F)c(Cl)c3)ncn2)CC1
989 s | CCn1cc(-c2nc(C)c(C(=O)NCc3cccc(C)c3)s2)c2cccnc21
753 s | CCNCc1cc(C(C)(C)C)c(O)c(C(C)(C)C)c1
599 s | COc1cccc(C2CC(c3ccc4c(c3)OCO4)=NC3(CCN(C(C)C)CC3)N2)c1O (centres undefined)
607 s | CN(Cc1nc2cc(C(=O)N3CCCC3)ccc2n1C)C(=O)Nc1ccc(F)cc1F
964 s | COc1ccc(C2C(=O)N(CCc3ccccc3)CC(=O)N2Cc2cccs2)cc1 (centres undefined)
866 s | O=C(c1c[nH]c2ccccc12)N1CCCCC1c1nc(C2CC2)no1 (centres undefined)
813 s | CN(C)c1cc(-n2cnc(C(=O)NCc3ccccc3Cl)c2)ncn1
1230 s | Cc1ccc(NS(=O)(=O)c2c(C)nc3sc4cc(C)ccc4n3c2=O)c(C)c1
1040 s | Cc1ccc2c(c1)OCC(=O)N2Cc1nc(-c2ccccc2)no1
1190 s | O=C(COc1ccc(Cl)cc1)Nc1nc(-c2ccc(Cl)cc2)cs1
1100 s | O=C1COc2ccccc2N1Cc1nc(-c2cccc(C(F)(F)F)c2)no1
721 s | Cc1nn(CC(=O)NCc2ccc(F)cc2Cl)c(=O)c2noc(C)c12
673 s | CCc1ccc(OCC(=O)OCCNC(=O)c2ccncc2)cc1
1050 s | COc1cccc(-c2nnc(Cc3nc(-c4ccc(SC)cc4)no3)o2)c1
798 s | Cc1ccc2[nH]cc(CCN3CC(C(=O)Nc4ccccc4C)CC3=O)c2c1 (centres undefined)
1100 s | Cc1ccc(-c2nnc(-c3ccccc3)o2)cc1S(=O)(=O)N1CCCCC1
1100 s | COC(=O)c1ccc(CSc2nccc3c(OC)cccc23)o1
716 s | COCCc1noc([C@@H]2CC(F)(F)CN2C(=O)c2ccco2)n1
681 s | O=C(Nc1cc(F)ccc1F)NC1CCN(c2cc(N3CCCC3)cnn2)C1 (centres undefined)
797 s | O=C1CC(c2nc3ccccc3n2CC(O)COc2ccccc2Cl)CN1Cc1ccccc1 (centres undefined)

RP-LC retention time | Structure (SMILES)
574 s | Cc1nc(C)c(C(=O)N2CCC(N3C[C@H](O)C[C@H]3C(=O)NC3CCCCC3)CC2)s1
1090 s | Cc1ccc(N2CC(c3noc(-c4cccc(Cl)c4)n3)CC2=O)cc1 (centres undefined)
604 s | CCCNC(=O)C1CCN(c2nc3ccc(-c4cccnc4)nc3s2)CC1
906 s | O=C(C1CCN(S(=O)(=O)c2ccc3[nH]c4c(c3c2)CCCCC4)CC1)N1CCCC1
666 s | CCOC(=O)c1c(C)[nH]c(C)c1S(=O)(=O)N1CCC(C(=O)Nc2ccc(NC(C)=O)cc2)CC1
694 s | CC1CN(C(=O)CCC(=O)NC2CCN(Cc3ccccc3)CC2)c2cc(Cl)ccc2O1 (centres undefined)
800 s | Brc1ccc(C(c2nnc(-c3ccccc3)o2)N2CCN(c3ccccn3)CC2)cc1 (centres undefined)
1020 s | Cc1cc(C)nc(NS(=O)(=O)c2ccc(Nc3nc(-c4ccc(C)c(C)c4)cs3)cc2)n1
541 s | O=C(Nc1ccc2cn[nH]c2c1)c1ccc2nc[nH]c2c1
1260 s | COc1ccc(C(=S)N2CCN(c3ccccc3C)CC2)cc1
628 s | CNC(=O)NC1CCN(C(=O)c2cccc(F)c2)C1 (centres undefined)
827 s | COc1ccc(C(=O)NC2(c3nc(-c4ccncc4)no3)CCCCC2)cc1OC
1010 s | CCCNS(=O)(=O)c1ccc(Cl)c(-c2nnc(-c3ccc(OC)cc3)o2)c1
1020 s | O=C(NCc1ccc(F)cc1)C1CCN(S(=O)(=O)c2ccc(-c3noc(C4CC4)n3)cc2)CC1
967 s | Cc1ccc(C(=O)Nc2ccccc2[N+](=O)[O-])cc1
950 s | COc1cccc(CNC(=O)C2(c3ccc(NC(=O)C(C)C)cc3)CCCCC2)c1
624 s | Cn1ncc2c3ccccc3n(CC(=O)NC3CCN(Cc4ccccc4)CC3)c2c1=O
673 s | Cc1nc(NCCNC(=O)c2ccc(Br)o2)cc(-n2cccn2)n1
1120 s | Cc1ccccc1-c1noc(CN2C(=O)COc3ccc(Cl)cc32)n1
1210 s | O=S(=O)(Cc1ccc(Cl)cc1)N1CCc2nc(-c3ccc(Cl)cc3)ncc2C1
550 s | Cc1ccc2c(C(=O)NCCc3cccnc3)cc(NC(=O)C(C)C)cc2n1
745 s | CCOC(=O)CNC(=O)N1CCCC1c1cccc(F)c1 (centres undefined)
762 s | Cc1ccc(CCNC(=O)C2CCCN(c3nnc(C)c4c(C)n(-c5ccccc5)nc34)C2)cc1 (centres undefined)
684 s | CCn1cnc(S(=O)(=O)N2CCC(C(=O)NCc3ccc4c(c3)OCO4)CC2)c1
933 s | Cc1ccc(S(=O)(=O)N2C(=O)CCC2C(=O)Nc2cccc3ccccc23)cc1 (centres undefined)
